Reference: patent US20080181876A1, “Methods for treating acute and subchronic pain” (priority 2007, published 2008)
“Also recorded” adds a separate entry of the source.

Assays:
Sprague-Dawley rats = experiment: Modified Hargreaves test (high and low intensity), tail and hindpaw withdrawal to heat stimuli; assay type: in vivo, rat
Procedure: Pathogen-free adult male Sprague-Dawley rats (300-375 g; Harlan Labs, Madison, Wis.) were used in all experiments. Rats were housed in temperature (23±3° C.) and light (12 h: 12 h light:dark cycle; lights on at 0700) controlled rooms with standard rodent chow and water available ad libitum. All procedures were approved by the Institutional Animal Care and Use Committee of the University of Colorado at Boulder. Each study represents an n=6 per group.
Morphine sulfate and oxycodone hydrochloride were purchased from Sigma (St. Louis, Mo., USA). Morphine and oxycodone were administered subcutaneously at 4 mg/kg in a dose volume of 1 ml/kg in sterile injection normal saline. Ibudilast was supplied by Avigen (Alameda, Calif., USA). Ibudilast was administered intraperitoneally at 7.5 mg/kg in a dose volume of 2.5 ml/kg in 35% PEG: 65% injection saline. Morphine and oxycodone doses reported are as free base concentrations.
Hargreaves tests for analgesia and hyperalgesia. Rats received at least three 60 min habituations to the test environment prior to behavioral testing. Thresholds for behavioral response to heat stimuli applied to the plantar surface of each hindpaw and tail were assessed using a modified Hargreaves test (Hargreaves et al., 1988). All testing was conducted blind with respect to group assignment. Briefly, baseline withdrawal values were calculated from an average of 2 consecutive withdrawal latencies of the tail and the left and the right hindpaws, measured at 15-min intervals. Latencies for the high intensity stimulus at baseline ranged from 2 to 3 s, and a cut-off time of 10 s was imposed to avoid tissue damage. Latencies for the low intensity stimulus at baseline ranged from 6 to 7 s, and a cut-off time of 20 s was imposed to avoid tissue damage. The order of paw and tail testing varied randomly.
The analgesic responses were calculated as the % of maximal possible effect
(Carmody, 1995). For high intensity Hargreaves, a cut off of 10 s was used. For low intensity Hargreaves, a 20 s cut off was employed. Since there is no unilateral paw effect expected (or observed) left and right withdrawal latencies were averaged. Statistical significance for analysis of time courses was assessed using a two-way repeated ANOVA with Bonferroni post hoc test and compared the analgesic responses of active treatments versus their vehicle controls. Area under the curves were analyzed with a students t-test. Significance was set at P<0.05. Calculations were conducted with Excel 2003 SP2 (Microsoft, Redmond, Calif., USA) & Prism 4.03 (GraphPad, San Diego, Calif., USA).
Following baseline withdrawal latency assessments (−45 min), animals received ibudilast or vehicle and were tested again 10 min later to determine if ibudilast or vehicle had any effect on withdrawal latencies. At this time (time 0), the animals received a subcutaneous saline injection (1 ml/kg) to control for conditions in Experiment 2 (see below). Animals were then tested every 10 minutes for 80 min alternating high and low intensity Hargreaves tests.
Following baseline withdrawal latency assessments (−45 min), animals received ibudilast or vehicle (−30 min) and were tested again at −10 min. At time 0, animals received a subcutaneous morphine injection (4 mg/kg in a dose volume of 1 ml/kg in injection saline) and were tested every 10 minutes for 230 min alternating high and low intensity Hargreaves tests. […]

Sprague-Dawley (CD) rats = experiment: Rat tail-flick latency test (heat source, 15 second maximum); assay type: in vivo; conditions: for antinociceptive activity (tail-flick latency), administered alone: single agent: morphine 1.2 mg/kg s.c. or ibudilast 50 mg/kg po
Procedure: Male Sprague-Dawley (CD) rats were acclimated to a room temperature of 79° F. to semi-confined conditions on a heated glass surface (79° F.). On the first day, rats were acclimated to a glass surface for 20-30 minutes. Rats were in chambers made of plexiglass and could move freely in either direction. No stimulus was given on day 1. On day 2, rats were acclimated for 5 minutes, and a high intensity beam of light was directed at each rat tail approximately 4 cm from the tip. The time it took for a rat tail to withdraw from the heat source was recorded as the baseline latent period for tail flick. Three trials were done with 5 minutes between trials for each rat. The light source was moved for the 2nd and 3rd trials one cm caudal and rostral of the original trial to avoid tissue damage. Animals were dosed orally with ibudilast (50 mg/kg in vehicle (10% HCO60+10% PEG in sterile water) and/or 1.2 mg/kg morphine s.c. formulated in saline for injection. Dose volumes were 1 ml/kg for s.c. administrations (i.e. opioid) and 10 ml/kg for p.o. administrations. Animals were dosed and returned to their cages until 5 minutes before each hourly time point, when they were returned to the glass surface and stimulated with the heat source (3 trials/time point). The ibudilast vehicle was also shown not to have analgesic activity and performed like the saline control. Studies were performed at Avigen Inc. under IACUC regulations.

SMILES | enhancement of morphine analgesia, tail and paw withdrawal latencies (Sprague-Dawley rats; ibudilast 7.5 mg/kg i.p. 30 min prior to morphine 4 mg/kg s.c., high and low intensity Hargreaves, vs vehicle + morphine) | enhancement of oxycodone analgesia, tail and paw withdrawal latencies (Sprague-Dawley rats; ibudilast 7.5 mg/kg i.p. 30 min prior to oxycodone 4 mg/kg s.c., high and low intensity Hargreaves, vs vehicle + oxycodone) | area under the analgesia curve, co-administration with morphine (Sprague-Dawley rats; ibudilast 7.5 mg/kg i.p. + morphine 4 mg/kg s.c., tail and hind paw, vs vehicle + morphine) | area under the analgesia curve, co-administration with oxycodone (Sprague-Dawley rats; ibudilast 7.5 mg/kg i.p. + oxycodone 4 mg/kg s.c., tail and hind paw, vs vehicle + oxycodone) | tail and paw withdrawal latencies (% maximal possible effect), ibudilast alone (Sprague-Dawley rats; ibudilast 7.5 mg/kg i.p. alone (followed by s.c. saline), high and low intensity Hargreaves, vs vehicle 35% PEG) | tail-flick latency, co-administration of oral ibudilast and s.c. morphine (Sprague-Dawley (CD) rats; ibudilast 50 mg/kg po + morphine 1.2 mg/kg s.c. concurrently, vs either therapeutic alone) | antinociceptive activity (tail-flick latency), administered alone (Sprague-Dawley (CD) rats)
CC(C)C(=O)c1c(C(C)C)nn2ccccc12 [ibudilast, 3-isobutyryl-2-isopropylpyrazolo[1,5-a]pyridine] | significantly enhanced; also recorded: potentiated analgesia | significantly enhanced; also recorded: potentiated analgesia | significant increase in analgesia | significant increase in analgesia | no significant influence; also recorded: little to no effect | substantial, greater-than-additive increase; also recorded: potentiates morphine-induced analgesia | weak antinociceptive activity
CN1CC[C@]23c4c5ccc(O)c4O[C@H]2[C@@H](O)C=C[C@H]3[C@H]1C5 [morphine] | – | – | – | – | – | – | weak antinociceptive activity
